Structures can show the parent of a compound that is named as a salt.
Tests used:
[1] = Single dose pharmacokinetics in rats; details: rat; for AUC: 30 mg/kg po, normalized to a dose of 30 mg/kg
T cell tropic (X4) HIV-1 = experiment: Anti-HIV activity against X4 HIV-1; format: cell-based
human CCR5 = human CCR5 (Homo sapiens, UniProt P51681); experiment: Inhibition of calcium mobilization of hCCR5/CHO cells stimulated with MIP-1α; format: cell-based
[2] = ref 6a; cited from earlier work
Oral cassette dosing PK = format: in vivo

Chain of human CCR5 (P51681 whole entry): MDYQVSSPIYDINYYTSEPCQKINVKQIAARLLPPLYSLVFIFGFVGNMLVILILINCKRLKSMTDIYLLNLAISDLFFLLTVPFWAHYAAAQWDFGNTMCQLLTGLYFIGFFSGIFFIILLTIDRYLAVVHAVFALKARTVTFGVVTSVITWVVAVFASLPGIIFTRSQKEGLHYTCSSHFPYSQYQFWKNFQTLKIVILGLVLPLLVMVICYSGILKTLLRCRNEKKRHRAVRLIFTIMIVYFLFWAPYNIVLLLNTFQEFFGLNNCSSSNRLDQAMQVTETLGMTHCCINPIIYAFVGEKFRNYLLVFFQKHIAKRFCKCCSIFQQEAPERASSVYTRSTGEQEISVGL

CCCCN1C(=O)[C@H](CC2CCCCC2)NC(=O)C12CCN(Cc1ccc(Oc3ccc(C(=O)O)cc3)cc1)CC2.Cl [Compound 40, 4-(4-{[(3S)-1-Butyl-3-(cyclohexylmethyl)-2,5-dioxo-1,4,9-triazaspiro[5.5]undec-9-yl]methyl}phenoxy)benzoic acid hydrochloride]
AUC [1]: 10,532 ng h/mL | Activity against T cell tropic (X4) HIV-1 (T cell tropic (X4) HIV-1): inactive

CCCCN1C(=O)[C@H](CC2CCCCC2)NC(=O)C12CCN(Cc1ccc(Oc3ccc(O)cc3)cc1)CC2.Cl [Compound 36, (3S)-1-Butyl-3-(cyclohexylmethyl)-9-[4-(4-hydroxyphenoxy)benzyl]-1,4,9-triazaspiro[5.5]undecane-2,5-dione hydrochloride]
AUC [1]: 195 ng·h/mL

CCCCN1C(=O)C(COC)NC(=O)C12CCN(Cc1ccc(Oc3ccccc3)cc1)CC2 (stereo not drawn) [Compound 13, 1-Butyl-3-(methoxymethyl)-9-(4-phenoxybenzyl)-1,4,9-triazaspiro[5.5]undecane-2,5-dione hydrochloride]
IC50 (human CCR5): 320 nM

CCCCN1C(=O)C(CC(C)C)NC(=O)C12CCN(Cc1ccc(Oc3ccccc3)cc1)CC2.Cl (stereo not drawn) [Compound 1b, 1-Butyl-3-isobutyl-9-(4-phenoxybenzyl)-1,4,9-triazaspiro[5.5]undecane-2,5-dione hydrochloride]
Cytotoxicity [2]: minimal

CC(C)CC1NC(=O)C2(CCN(Cc3ccc(Oc4ccccc4)cc3)CC2)N(CCC(C)O)C1=O.Cl (stereo not drawn) [Compound 4, 1-(3-Hydroxybutyl)-3-isobutyl-9-(4-phenoxybenzyl)-1,4,9-triazaspiro[5.5]undecane-2,5-dione hydrochloride]
BA ([1]; 30 mg/kg po vs 3 mg/kg iv): 34.1%

CCCCN1C(=O)[C@H](CC2CCCCC2)NC(=O)C12CCN(Cc1ccc(Oc3ccc(NS(C)(=O)=O)cc3)cc1)CC2.Cl [Compound 38, N-[4-(4-{[(3S)-1-Butyl-3-(cyclohexylmethyl)-2,5-dioxo-1,4,9-triazaspiro[5.5]undec-9-yl]methyl}phenoxy)phenyl]methanesulfonamide hydrochloride]
AUC after oral cassette dosing (Oral cassette dosing PK): poor

CCCCN1C(=O)C(CC2CCCCC2)NC(=O)C12CCN(Cc1ccc(Oc3ccccc3)cc1)CC2.Cl (stereo not drawn) [Compound 1a, 1-Butyl-3-(cyclohexylmethyl)-9-(4-phenoxybenzyl)-1,4,9-triazaspiro[5.5]undecane-2,5-dione hydrochloride]
Cytotoxicity [2]: minimal

CCCCN1C(=O)[C@H](CC2CCCCC2)NC(=O)C12CCN(Cc1ccc(Oc3ccc(S(N)(=O)=O)cc3)cc1)CC2.Cl [Compound 39, 4-(4-{[(3S )-1-Butyl-3-(cyclohexylmethyl)-2,5-dioxo-1,4,9-triazaspiro[5.5]undec-9-yl]methyl}phenoxy)benzenesulfonamide hydrochloride]
AUC after oral cassette dosing (Oral cassette dosing PK): poor

Source: article PMC7566811 (Bioorganic & medicinal chemistry, 2010)
